Assay results: BigSolDB 2.1

CN(C/C=C/C#CC(C)(C)C)Cc1cccc2ccccc12.Cl
solubility (mole fraction)
Settings | in ethanol | in ethyl acetate | in methanol | in n-propanol
278.15 K | 0.0187 | 0.0022 | 0.0398 | 0.0187
280.65 K | 0.0197 | 0.00255 | 0.0411 | 0.0193
283.15 K | 0.0207 | 0.00304 | 0.0424 | 0.02
285.65 K | 0.0217 | 0.0036 | 0.0439 | 0.0206
288.15 K | 0.0229 | 0.00417 | 0.0453 | 0.0214
290.65 K | 0.0241 | 0.00482 | 0.047 | 0.0221
293.15 K | 0.0254 | 0.00557 | 0.0486 | 0.0228
295.65 K | 0.0266 | 0.00626 | 0.0502 | 0.0237
298.15 K | 0.0279 | 0.00715 | 0.0518 | 0.0245
300.65 K | 0.0293 | 0.00821 | 0.0536 | 0.0254
303.15 K | 0.0309 | 0.00919 | 0.0554 | 0.0262
305.65 K | 0.0326 | 0.0105 | 0.0572 | 0.0271
308.15 K | 0.0342 | 0.0119 | 0.059 | 0.028
310.65 K | 0.036 | 0.0133 | 0.061 | 0.0291
313.15 K | 0.0379 | 0.015 | 0.063 | 0.0301
